Measurements taken from patent US9585854B2, “N-acetyl-L-cysteine for use in in vitro fertilization” (IASOMAI AB, priority 2012, dated 2017).

What was measured:
human spermatozoa = assay: human sperm motility bioassay (toxicity test); assay type: cell-based
Experimental: The eventual occurrence of NAC embryotoxicity was preliminary tested.
Assessments of human sperm motility were performed on fresh samples taken from 3 healthy donors with good seminal parameters including sperm motility and velocity. Migration or “Swim-up” on human sperm preparation medium was applied to select motile spermatozoa. After selection each semen sample was divided into 3 aliquots transferred to Eppendorf tubes. In addition to one control tube, two tubes had NAC added at concentrations of 100 and 1,000 nM. Tubes were incubated in a 5% CO2 environment, with constant temperature and humidity conditions for 24 hours. Sperm motility was assessed using a contrast phase microscope at a 400 times magnification after 1, and 24 hours of exposure to NAC. Assessment was performed over a fixed time interval of 2 minutes. Nine samples were assessed for sperm motility and velocity by 36 measurements (2 measurements at 1 and 24 h per sample).

[1] = tested on: normal human epidermal keratinocytes; assay: micro array gene expression analysis (Affymetrix GeneChip); assay type: cell-based; conditions: vs untreated
Experimental: The present experiments were carried out to elucidate if NAC treatment influence integrin and fibronectin gene expression by gene expression analysis using the Affymetrix GeneChip platform.
A micro array based gene expression analysis of the normal human epidermal keratinocytes was performed 1 and 12 hours after addition of NAC, compared to untreated (i.e. control samples at the same time points). Data obtained from GeneChip analysis were processed using the RNA analysis approach and samples were normalized to their corresponding controls. Filtering was done based on two criteria (p-value <0.1 and >1.5 fold up- or >0.5 down-regulation) for each time point. The labelling and hybridisation was done in duplicate.

[2] = parameters: species or system human; conditions: in vivo
Source text: GSH is e.g. normally conjugated to reactive metabolites formed by paracetamol and helps detoxify them. When paracetamol is overdosed GSH is however depleted and the paracetamol metabolites start reacting with cellular proteins, eventually leading to cell death. In the treatment of fulminant hepatic failure after paracetamol poisoning NAC acts instead of GSH in the detoxification of paracetamol metabolites.
The composition of the present invention, comprising NAC for the treatment of IVF according to one embodiment to be administered intravenously at a dose between approximately 50 and 150 mg/kg/day.
For overcoming this in cases of oral administration, an option is to provide NAC in a formulation with gastric protection, suitable for preventing NAC release/solubility in the stomach. Such formulations are well known in the art and may be used with the present invention. For example, tablet coatings that are resistant to gastric fluids and allow release of the drug only in the intestine, after its transit through the stomach, may be used. Commonly used formulations include polymers such as cellulose derivatives, methacrylate amino ester copolymers. […]

Structure (SMILES): CC(=O)N[C@@H](CS)C(=O)O [NAC, N-acetyl-L-cysteine]
- adverse influence on human spermatozoa (human spermatozoa): failed to show an adverse influence
- human sperm motility or velocity compared to controls (human spermatozoa; NAC 100 and 1,000 nM, 1 and 24 hours of exposure): no effects
- embryotoxic effect (human spermatozoa; concentrations up to 50-fold therapeutic blood concentrations): failed to detect an embryotoxic effect
- integrin alpha 2 gene expression ([1]; 1 hr after NAC treatment): up-regulated
- fibronectin gene expression ([1]; 12 hours after NAC): upregulated
- side effect of high oral doses [2]: may cause abdominal pain
